Laboratory results: patent publication US20150274719A1, “AMINO-SUBSTITUTED IMIDAZO[1,2-A]PYRIDINECARBOXAMIDES AND THEIR USE” (BAYER PHARMA AKTIENGESELLSCHAFT, priority 2012, published 2015)

molecular target: T1, recombinant guanylate cyclase reporter cell line (Rattus norvegicus, UniProt P19686+P20595); test: Action on recombinant guanylate cyclase reporter cell line; type: cell-based; settings: in some cases mean values from individual determinations
T1 construct: expressed in transfected cells; host or cells: recombinant reporter cell line
T1 sequence (P19686 1-690): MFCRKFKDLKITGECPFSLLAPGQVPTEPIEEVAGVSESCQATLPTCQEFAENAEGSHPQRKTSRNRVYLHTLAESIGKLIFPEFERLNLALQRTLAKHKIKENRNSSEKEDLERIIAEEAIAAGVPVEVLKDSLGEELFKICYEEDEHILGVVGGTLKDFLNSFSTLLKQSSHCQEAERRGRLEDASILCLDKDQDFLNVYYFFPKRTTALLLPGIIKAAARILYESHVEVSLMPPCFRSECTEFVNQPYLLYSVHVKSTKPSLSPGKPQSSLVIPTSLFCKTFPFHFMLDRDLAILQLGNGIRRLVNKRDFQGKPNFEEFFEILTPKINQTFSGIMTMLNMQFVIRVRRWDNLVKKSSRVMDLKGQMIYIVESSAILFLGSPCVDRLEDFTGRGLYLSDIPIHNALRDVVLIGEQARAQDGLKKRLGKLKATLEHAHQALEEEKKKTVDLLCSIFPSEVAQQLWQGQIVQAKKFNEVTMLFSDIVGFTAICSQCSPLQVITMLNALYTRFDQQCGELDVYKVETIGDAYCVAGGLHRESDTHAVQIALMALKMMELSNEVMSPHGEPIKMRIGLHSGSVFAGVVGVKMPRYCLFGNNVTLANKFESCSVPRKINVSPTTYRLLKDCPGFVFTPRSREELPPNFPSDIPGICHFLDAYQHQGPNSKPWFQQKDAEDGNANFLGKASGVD
T1 sequence (P20595 1-619): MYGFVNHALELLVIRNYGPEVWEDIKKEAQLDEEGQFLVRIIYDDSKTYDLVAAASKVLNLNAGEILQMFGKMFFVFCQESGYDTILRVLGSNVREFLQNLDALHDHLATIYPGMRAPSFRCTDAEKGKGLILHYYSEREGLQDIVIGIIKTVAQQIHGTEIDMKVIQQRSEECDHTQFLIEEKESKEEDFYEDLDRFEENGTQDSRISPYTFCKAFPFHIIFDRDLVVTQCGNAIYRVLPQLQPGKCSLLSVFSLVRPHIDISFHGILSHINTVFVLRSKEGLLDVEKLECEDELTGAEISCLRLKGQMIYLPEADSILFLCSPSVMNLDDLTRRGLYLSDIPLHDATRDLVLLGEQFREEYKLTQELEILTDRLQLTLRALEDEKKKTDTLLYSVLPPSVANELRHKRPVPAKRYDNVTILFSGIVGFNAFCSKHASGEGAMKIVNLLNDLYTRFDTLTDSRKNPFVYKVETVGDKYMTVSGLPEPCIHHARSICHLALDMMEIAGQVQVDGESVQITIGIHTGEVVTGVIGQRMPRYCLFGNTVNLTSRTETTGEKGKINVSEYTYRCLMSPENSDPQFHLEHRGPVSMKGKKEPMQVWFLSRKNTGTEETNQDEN
Summary of the method: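 Reported value is the minimal effective concentration (MEC), in some cases a mean of single runs, taken from a recombinant rat guanylate cyclase reporter cell line.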

Structure (SMILES)	MEC (minimal effective concentration) [µM]
CCCC(C)(N)CNC(=O)c1c(C)nc2c(OCc3c(F)cccc3F)cc(Cl)cn12 (single isomer, unassigned; enantiomer a) [Example 245, ent-N-(2-Amino-2-methylpentyl)-6-chloro-8-[(2,6-difluorobenzyl)oxy]-2-methylimidazo[1,2-a]-pyridine-3-carboxamide (Enantiomer A)]	0.10
CCCC(C)(N)CNC(=O)c1c(C)nc2c(OCc3c(F)cccc3F)cccn12 (stereo not drawn) [Example 318, ent-N-(2-amino-2-methylpentyl)-8-[(2,6-difluorobenzyl)oxy]-2-methylimidazo[1,2-a]pyridine-3-carboxamide]	0.30
Cc1nc2c(OCc3c(F)cccc3F)cccn2c1C(=O)NCC(C(C)C)N(C)C (racemic) [Example 142, rac-8-[(2,6-difluorobenzyl)oxy]-N-[2-(dimethyl-amino)-3-methylbutyl]-2-methylimidazo[1,2-a]-pyridine-3-carboxamide]	1.00
COc1ccc(CC(C)(N)CNC(=O)c2c(C)nc3c(OCc4c(F)cccc4F)cc(C)cn23)cc1 (racemic) [Example 368, rac-N-[2-amino-3-(4-methoxyphenyl)-2-methylpropyl]-8-[(2,6-difluorobenzyl)oxy]-2,6-dimethylimidazo[1,2-a]pyridine-3-carboxamide]	0.10
Cc1nc2c(OCc3ccccc3F)cccn2c1C(=O)NC(CN)c1ccc(F)c(F)c1 (stereo not drawn) [Example 98, ent-N-[2-Amino-1-(3,4-difluorophenyl)ethyl]-8-[(2-fluorobenzyl)oxy]-2-methylimidazo[1,2-a]-pyridine-3-carboxamide]	1.00
Cc1nc2c(OCc3c(F)cccc3F)cccn2c1C(=O)NC(C)[C@@H](C)N (single isomer, unassigned) [Example 176]	1.00
CCCC(C)(N)CNC(=O)c1c(C)nc2c(OCc3c(F)cccc3F)cc(Cl)cn12 (single isomer, unassigned; enantiomer b) [Example 246, ent-N-(2-Amino-2-methylpentyl)-6-chloro-8-[(2,6-difluorobenzyl)oxy]-2-methylimidazo[1,2-a]-pyridine-3-carboxamide (Enantiomer B)]	0.30
CCCC[C@H](CNCCOC)NC(=O)c1c(C)nc2c(OCc3c(F)cccc3F)cccn12 [Example 70, ent-8-[(2,6-difluorobenzyl)oxy]-N-{(2R)-1-[(2-methoxyethyl)amino]hexan-2-yl}-2-methylimidazo[1,2-a]pyridine-3-carboxamide]	1.00
Cc1nc2c(OCc3c(F)cccc3F)cc(Cl)cn2c1C(=O)NCC1CCCCN1 (single isomer, unassigned; ent-6) [Example 190, ent-6-Chloro-8-[(2,6-difluorobenzyl)oxy]-2-methyl-N-(piperidin-2-ylmethyl)imidazo[1,2-a]-pyridine-3-carboxamide]	1.00
Cc1cc(OCc2c(F)cccc2F)c2nc(C)c(C(=O)NCCNC(C)C)n2c1 (racemic) [Example 135, rac-8-[(2,6-difluorobenzyl)oxy]-N-[2-(isopropylamino)ethyl]-2,6-dimethylimidazo[1,2-a]pyridine-3-carboxamide]	1.00
Cc1nc2c(OCc3c(F)cccc3F)cccn2c1C(=O)NCCC(C)(C)N [Example 117, N-(3-amino-3-methylbutyl)-8-[(2,6-difluorobenzyl)oxy]-2-methylimidazo[1,2-a]-pyridine-3-carboxamide]	1.00
Cc1nc2c(OCc3c(F)cccc3F)cccn2c1C(=O)NC1CCNc2ccc(C(F)(F)F)cc21 (single isomer, unassigned; ent-8) [Example 112, ent-8-[(2,6-difluorobenzyl)oxy]-2-methyl-N-[6-(trifluoromethyl)-1,2,3,4-tetrahydroquinolin-4-yl]imidazo[1,2-a]pyridine-3-carboxamide]	0.10
Cc1nc2c(OCc3c(F)cccc3F)cc(Cl)cn2c1C(=O)NCCN(CC(F)F)C1CC1 [Example 150, 6-chloro-N-{2-[cyclopropyl(2,2-difluoroethyl)-amino]ethyl}-8-[(2,6-difluorobenzyl)oxy]-2-methylimidazo[1,2-a]pyridine-3-carboxamide]	0.10
COCC(C)(N)CNC(=O)c1c(C)nc2c(OCc3c(F)cccc3F)cc(C)cn12 (single isomer, unassigned) [Example 198, ent-N-(2-Amino-3-methoxy-2-methylpropyl)-8-[(2,6-difluorobenzyl)oxy]-2,6-dimethylimidazo-[1,2-a]pyridine-3-carboxamide]	0.30
Cc1cc(OCc2c(F)cccc2F)c2nc(C)c(C(=O)NCC(N)c3cccc(OC(F)(F)F)c3)n2c1 (racemic) [Example 377, rac-N-{2-amino-2-[3-(trifluoromethoxy)phenyl]ethyl}-8-[(2,6-difluorobenzyl)oxy]-2,6-dimethylimidazo[1,2-a]pyridine-3-carboxamide]	3.00
CCCC(C)(N)CNC(=O)c1c(C)nc2c(OCc3c(F)cccc3F)cc(Br)cn12 (stereo not drawn) [Example 306, ent-N-(2-amino-2-methylpentyl)-6-bromo-8-[(2,6-difluorobenzyl)oxy]-2-methylimidazo[1,2-a]pyridine-3-carboxamide]	0.10
Cc1nc2c(OCc3c(F)cccc3F)cccn2c1C(=O)NCC(N)C(F)(F)F (racemic) [Example 207, rac-N-(2-Amino-3,3,3-trifluoropropyl)-8-[(2,6-difluorobenzyl)oxy]-2-methylimidazo[1,2-a]-pyridine-3-carboxamide]	1.00
Cc1cc(OCc2c(F)cccc2F)c2nc(C)c(C(=O)NCC3(N)CCC3)n2c1 [Example 165, N-[(1-aminocyclobutyl)methyl]-8-[(2,6-difluorobenzyl)oxy]-2,6-dimethylimidazo[1,2-a]-pyridine-3-carboxamide]	0.10
Cc1cc(OCc2c(F)cccc2F)c2nc(C)c(C(=O)NCC(C)(N)Cc3ccc(F)cc3)n2c1 (racemic) [Example 296, rac-N-[2-amino-3-(4-fluorophenyl)-2-methylpropyl]-8-[(2,6-difluorobenzyl)oxy]-2,6-dimethylimidazo[1,2-a]pyridine-3-carboxamide]	0.10
Cc1cc(OCc2c(F)cccc2F)c2nc(C)c(C(=O)NC(CN)c3ccc([N+](=O)[O-])cc3)n2c1 (racemic) [Example 384, rac-N-[2-amino-1-(4-nitrophenyl)ethyl]-8-[(2,6-difluorobenzyl)oxy]-2,6-dimethylimidazo[1,2-a]pyridine-3-carboxamide]	0.30
Cc1cc(OCc2c(F)cccc2F)c2nc(C)c(C(=O)NCCN3CCN(C(C)C)CC3)n2c1 [Example 139, 8-[(2,6-difluorobenzyl)oxy]-N-[2-(4-isopropylpiperazin-1-yl)ethyl]-2,6-dimethylimidazo[1,2-a]pyridine-3-carboxamide]	1.00
CCCC(C)(N)CNC(=O)c1c(C)nc2c(OCc3c(F)cccc3OC)cc(C)cn12 (racemic) [Example 351, rac-N-(2-amino-2-methylpentyl)-8-[(2-fluoro-6-methoxybenzyl)oxy]-2,6-dimethylimidazo[1,2-a]pyridine-3-carboxamide]	3.00
CCCc1nc2c(OCc3c(F)cccc3F)cc(C)cn2c1C(=O)NCC(C)(N)CC (stereo not drawn) [Example 327, ent-N-(2-amino-2-methylbutyl)-8-[(2,6-difluorobenzyl)oxy]-6-methyl-2-propylimidazo[1,2-a]pyridine-3-carboxamide]	1.00
Cc1cc(OCc2c(F)cccc2F)c2nc(C)c(C(=O)NCCN3CCOCC3)n2c1 [Example 136, 8-[(2,6-difluorobenzyl)oxy]-2,6-dimethyl-N-[2-(morpholin-4-yl)ethyl]imidazo[1,2-a]pyridine-3-carboxamide]	0.10
